The results in this text go back to patent US20240417405A1, “Substituted Spiro Derivatives” (Janssen Pharmaceutica NV, priority 2021, published 2024).

Assay [1] has as its system MOLM14 cells. Description: Proliferation assay, spheroid-like growth, MOLM14 (MLL-AF9 rearranged). It counts as cell-based, human. The conditions noted are these: Homo sapiens, MOLM-14, 192 h, 8 days, confluence as measure of spheroid size, read-out: spheroid assay_OneTime MOLM14 IC50. On the procedure: The anti-proliferative effect of menin/MLL protein/protein interaction inhibitor test compounds was assessed in human leukemia cell lines. The cell line MOLM14 harbors a MLL translocation and expresses the MLL fusion proteins MLL-AF9, respectively, as well as the wildtype protein from the second allele. […] KO-52 was used as a control cell line containing two MLL (KMT2A) wildtype alleles in order to exclude compounds that display general cytotoxic effects.
MOLM14 cells were cultured in RPMI-1640 (Sigma Aldrich) supplemented with 10% heat-inactivated fetal bovine serum (HyClone), 2 mM L-glutamine (Sigma Aldrich) and 50 μg/ml gentamycin (Gibco). KO-52 cell lines were propagated in alpha-MEM (Sigma Aldrich) supplemented with 20% heat-inactivated fetal bovine serum (HyClone), 2 mM L-glutamine (Sigma Aldrich) and 50 μg/ml gentamycin (Gibco).
In order to assess the anti-proliferative effects, 200 MOLM14 cells, or 300 KO-52 cells were seeded in 200 μl media per well in 96-well round bottom, ultra-low attachment plates (Costar, catalogue number 7007). Cell seeding numbers were chosen based on growth curves to ensure linear growth throughout the experiment. Test compounds were added at different concentrations and the DMSO content was normalized to 0.3%. Cells were incubated for 8 days at 37° C. and 5% CO2. Spheroid like growth was measured in real-time by live-cell imaging (IncuCyteZOOM, Essenbio, 4× objective) acquiring images at day 8. Confluence (%) as a measure of spheroid size was determined using an integrated analysis tool.
In order to determine the effect of the test compounds over time, the confluence in each well as a measure of spheroid size, was calculated. Confluence of the highest dose of a reference compound was used as baseline for the LC (Low control) and the confluence of DMSO treated cells was used as 0% cytotoxicity (High Control, HC).
Absolute IC50 values were calculated as percent change in confluence as follows:
LC=Low Control: cells treated with e.g. 1 μM of the cytotoxic agent staurosporin, or e.g. cells treated with a high concentration of an alternative reference compound
GraphPad Prism (version 7.00) was used to calculate the IC50. Dose-response equation was used for the plot of % Effect vs Log 10 compound concentration with a variable slope and fixing the maximum to 100% and the minimum to 0%.

For assay [2], the target named is T1, menin/MLL (terbium chelate-labeled menin, FITC-MBM1 peptide) (Homo sapiens, UniProt O00255, T541A).
T1 construct: Menin (a.a 1-610-6xhis tag)
T1 sequence (O00255 with tags, fused parts or gaps T541A): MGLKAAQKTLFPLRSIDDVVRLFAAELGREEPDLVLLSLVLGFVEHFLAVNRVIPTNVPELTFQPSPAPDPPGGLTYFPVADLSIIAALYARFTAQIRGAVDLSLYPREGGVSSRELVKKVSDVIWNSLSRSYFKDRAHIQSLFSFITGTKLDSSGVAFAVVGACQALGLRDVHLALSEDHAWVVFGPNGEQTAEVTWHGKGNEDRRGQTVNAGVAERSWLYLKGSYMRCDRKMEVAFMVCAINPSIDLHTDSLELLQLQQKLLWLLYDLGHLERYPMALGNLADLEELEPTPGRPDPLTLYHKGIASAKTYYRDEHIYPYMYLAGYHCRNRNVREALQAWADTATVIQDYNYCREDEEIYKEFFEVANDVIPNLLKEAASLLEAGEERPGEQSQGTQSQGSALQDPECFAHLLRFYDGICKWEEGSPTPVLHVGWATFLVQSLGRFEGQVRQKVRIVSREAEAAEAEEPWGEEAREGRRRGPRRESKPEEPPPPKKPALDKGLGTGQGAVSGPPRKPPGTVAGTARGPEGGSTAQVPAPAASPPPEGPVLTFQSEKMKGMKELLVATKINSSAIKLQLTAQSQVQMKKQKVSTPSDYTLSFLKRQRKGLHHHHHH
Description: Menin/MLL homogenous time-resolved fluorescence (HTRF) assay. It counts as binding. As to conditions: 30 min incubation. The procedure:
1) Menin/MLL Homogenous Time-Resolved Fluorescence (HTRF) Assay
To an untreated, white 384-well microtiter plate was added 40 nL 200× test compound in DMSO and 4 μL 2× terbium chelate-labeled menin (vide infra for preparation) in assay buffer (40 mM Tris.HCl, pH 7.5, 50 mM NaCl, 1 mM DTT (dithiothreitol) and 0.05% Pluronic F-127). After incubation of test compound and terbium chelate-labeled menin for 30 min at ambient temperature, 4 μL 2× FITC-MBM1 peptide (FITC-β-alanine-SARWRFPARPGT-NH2 (SEQ ID NO: 3)) (“FITC” means fluorescein isothiocyanate) in assay buffer was added, the microtiter plate centrifuged at 1000 rpm for 1 min and the assay mixtures incubated for 15 min at ambient temperature. The relative amount of menin FITC-MBM1 complex present in an assay mixture is determined by measuring the homogenous time-resolved fluorescence (HTRF) of the terbium/FITC donor/acceptor fluorophore pair using an EnVision microplate reader (ex. 337 nm/terbium em. 490 nm/FITC em. 520 nm) at ambient temperature. The degree of fluorescence resonance energy transfer (the HTRF value) is expressed as the ratio of the fluorescence emission intensities of the FITC and terbium fluorophores (F^em 520 nm/F^em 490 nm). The final concentrations of reagents in the binding assay are 200 pM terbium chelate-labeled menin, 75 nM FITC-MBM1 peptide and 0.5% DMSO in assay buffer. Dose-response titrations of test compounds are conducted using an 11 point, four-fold serial dilution scheme, starting typically at 10 μM.
Compound potencies were determined by first calculating % inhibition at each compound concentration according to equation 1:
% inhibition=((HC−LC)−(HTRF^compound−LC))/(HC−LC))*100 (Eqn 1)
Where LC and HC are the HTRF values of the assay in the presence or absence of a saturating concentration of a compound that competes with FITC-MBM1 for binding to menin, and HTRF^compound is the measured HTRF value in the presence of the test compound. HC and LC HTRF values represent an average of at least 10 replicates per plate.
% inhibition=Bottom+(Top−Bottom)/(1+10^((logIC50−log[cmpd])*h)) (Eqn 2)
Where Bottom and Top are the lower and upper asymptotes of the dose-response curve, respectively, IC50 is the concentration of compound that yields 50% inhibition of signal and h is the Hill coefficient. IC50 values below 0.1 nM in the HTRF assay were reported as 0.1 nM in the Table below (detection limit).
Preparation of Terbium cryptate labeling of Menin: Menin (a.a 1-610-6xhis tag (“6xhis tag” disclosed as SEQ ID NO: 2), 2.3 mg/mL in 20 mM Hepes (2-[4-(2-Hydroxyethyl)-1-piperazinyl]ethane sulfonic acid), 80 mM NaCl, 5 mM DTT (Dithiothreitol), pH 7.5) was labeled with terbium cryptate as follows. 200 μg of Menin was buffer exchanged into 1× Hepes buffer. 6.67 μM Menin was incubated with 8-fold molar excess NHS (N-hydroxysuccinimide)-terbium cryptate for 40 minutes at room temperature. Half of the labeled protein was purified away from free label by running the reaction over a NAP5 column with elution buffer (0.1 M Hepes, pH 7+0.1% BSA (bovine serum albumin)). The other half was eluted with 0.1 M phosphate buffered saline (PBS), pH7. 400 μl of eluent was collected for each, aliquoted and frozen at −80° C. The final concentration of terbium-labeled Menin protein was 115 μg/mL in Hepes buffer and 85 μg/mL in PBS buffer, respectively.

For the compound `CC(C)[C@@H]([C@H]1C[C@@H](NC2CC2)C1)N1CC2(CCN(c3ncnnc3Oc3ccc(F)cc3-c3nnccc3C3CC3)C2)C1` (single isomer, unassigned) [Compound 272], the half-inhibitory concentration (IC50) (as a rule, the concentration needed to halve the response being measured) in assay [1] stood at 21 nM; in assay [2] it was 0.1 nM.

For the compound `CC(=O)N1CCN([C@H]2C[C@@H]([C@H](C(C)C)N3CC4(CCN(c5ncnnc5Oc5ccc(F)cc5-c5nnccc5C5CC5)C4)C3)C2)CC1` (single isomer, unassigned) [Compound 277], the concentration for half-maximal inhibition (IC50) in assay [1] is 250 nM; in assay [2] it was 0.9 nM.

Regarding `CC(C)[C@@H]([C@H]1C[C@@H](N2C[C@H]3COC[C@H]3C2)C1)N1CC2(CCN(c3ncnnc3Oc3ccc(F)cc3-c3cnncc3C3CC3)C2)C1` (single isomer, unassigned) [Compound 278], the IC50 in assay [1] was found to be 2 nM; in assay [2], 0.1 nM.

`CC(C)[C@H]([C@H]1C[C@@H](N2CCC3(CCO3)CC2)C1)N1CC2(CCN(c3ncnnc3Oc3ccc(F)cc3-c3cnncc3C3CC3)C2)C1` (single isomer, unassigned) [Compound 280a]: the IC50 in assay [1] is over 940 nM; in assay [2] it was 5 nM.

On to `CC(C)[C@@H]([C@H]1C[C@@H](N2CCC3(CCO3)CC2)C1)N1CC2(CCN(c3ncnnc3Oc3ccc(F)cc3-c3cnncc3C3CC3)C2)C1` (single isomer, unassigned) [Compound 281a], for which the IC50 in assay [1] was determined as 10 nM; in assay [2] it was 0.17 nM.

Turning to `CC(C)[C@@H]([C@H]1C[C@H](N2CCC3(CCO3)CC2)C1)N1CC2(CCN(c3ncnnc3Oc3ccc(F)cc3-c3cnncc3C3CC3)C2)C1` (single isomer, unassigned) [Compound 281b], the concentration for half-maximal inhibition (IC50) in assay [1] turned out to be 83 nM; in assay [2] it was 0.31 nM.

In the case of `CO[C@H]1[C@@H]2CN([C@H]3C[C@@H]([C@H](C(C)C)N4CC5(CCN(c6ncnnc6Oc6ccc(F)cc6-c6cnncc6C6CC6)C5)C4)C3)C[C@@H]21` (single isomer, unassigned) [Compound 282a], the results for the half-inhibitory concentration (IC50) in assay [1] and in assay [2] were 280 nM and 2.4 nM, respectively.

Take `CC(C)[C@@H]([C@H]1C[C@@H](NC(=O)C2CC2)C1)N1CC2(CCN(c3ncnnc3Oc3ccc(F)cc3-c3n[nH]c(=O)cc3C3CC3)C2)C1` (single isomer, unassigned) [Compound 310]: the half-inhibitory concentration (IC50) in assay [1] was over 940 nM; in assay [2], 24.2 nM.

Consider `CC(C)[C@H]([C@H]1C[C@@H](N2CC3(CNC(=O)O3)C2)C1)N1CC2(CCN(c3ncnnc3Oc3ccc(F)cc3-c3cncnc3C3CC3)C2)C1` (single isomer, unassigned) [Compound 317], for which the IC50 in assay [1] was 60 nM; in assay [2], 0.3 nM.

Take `CC(C)[C@@H]([C@H]1C[C@]2(COC(=O)N2)C1)N1CC2(CCN(c3ncnnc3Oc3ccc(F)cc3-c3cnncc3C3CC3)C2)C1` (single isomer, unassigned) [Compound 323]: the IC50 in assay [1] stood at 53 nM; in assay [2], 0.2 nM.

For `CC(C)[C@H]([C@H]1C[C@@H](N2CCC3(CNC(=O)O3)C2)C1)N1CC2(CCN(c3ncnnc3Oc3ccc(F)cc3-c3nnccc3C3CC3)C2)C1` (single isomer, unassigned) [Compound 328], the figures for the IC50 in assay [1] and in assay [2] were 33 nM and 0.1 nM, respectively.

As for `CC(C)[C@H]([C@H]1C[C@@H](N2CCC3(CN(C)C(=O)O3)C2)C1)N1CC2(CCN(c3ncnnc3Oc3ccc(F)cc3-c3cncnc3C3CC3)C2)C1` (single isomer, unassigned) [Compound 329], the IC50 is 32 nM in assay [1] and 0.3 nM in assay [2].

`CO[C@H]1CCN([C@H]2C[C@H](C(C(C)C)N3CC4(CCN(c5ncnnc5Oc5ccc(F)cc5-c5nnccc5C5CC5)C4)C3)C2)C1` (single isomer, unassigned) [Compound 332]: the values for the IC50 in assay [1] and in assay [2] were 37 nM and 0.7 nM, respectively.

`CNC(=O)CCN(C)[C@H]1C[C@@H]([C@@H](C(C)C)N2CC3(CCN(c4ncnnc4Oc4ccc(F)cc4-c4cncnc4C4CC4)C3)C2)C1` (single isomer, unassigned) [Compound 350]: the IC50 in assay [1] worked out at 10 nM; in assay [2] it was 0.1 nM.

Take `CC(=O)N1CC2(C1)CN([C@H]1C[C@H]([C@H](C(C)C)N3CC4(CCN(c5ncnnc5Oc5ccc(F)cc5-c5cnc(C)cc5C5CC5)C4)C3)C1)C2` (single isomer, unassigned) [Compound 372]: the 50% inhibitory concentration (IC50) was 18 nM in assay [1] and 0.2 nM in assay [2].

Regarding `CC(=O)N1CC2(C1)CN([C@H]1C[C@H]([C@H](C(C)C)N3CC4(CCN(c5ncnnc5Oc5ccc(F)cc5-c5ncc(C)cc5C5CC5)C4)C3)C1)C2` (single isomer, unassigned) [Compound 374], the IC50 in assay [1] was determined as 140 nM; in assay [2], 0.19 nM.

With `CO[C@H]1CCN(C2CC(C(C(C)C)N3CC4(CCN(c5ncnnc5Oc5ccc(F)cc5-c5nnc(C)cc5C5CC5)C4)C3)C2)C1` (single isomer, unassigned) [Compound 399], the figures for the IC50 in assay [1] and in assay [2] were 200 nM and 0.92 nM, respectively.
